From patent US20030017976A1, “Therapeutic properties of liposome-encapsulated immunomodulators” (priority 1998, published 2003)
Where “and” joins values, the source holds several entries; their conditions need not be identical. Identical values can stand only once.

System: L3.6pl human pancreatic tumors
Assay: Therapy of L3.6pl human pancreatic tumors in nude mice
Format: in vivo, mouse
Conditions: CPT-11 100 mg/kg i.p. once a week +/− oral JBT 3002 (tablet) 0.05 mcg/dose
Procedure: Table 19 (A, B, C). Therapy of human pancreatic carcinoma liver metastasis. The pancreas of nude mice were injected with 1×10^6 viable human pancreatic cancer L3.6pl cells. […] This regimen was repeated on a weekly basis for 3 weeks. The mice were killed. Pancreatic tumors, liver metastases, and lymph node metastasis were quantified.

N-hexadecanol-S-[2(R)-3-diodecanoyloxypropyl]-L-cysteinyl-L-alanyl-D-isoglutaminyl-glycyl-taurine sodium salt [JBT3002]
Incidence LN met (31 days): 7/10 | Incidence WT/PC (31 days): 3/10 | Incidence liver met (31 days): 2/9 | Tumor weight, Average (31 days): 706.22 mg | Tumor weight, Max (31 days): 981 mg | Tumor weight, Median (31 days): 733 mg | Tumor weight, Min (31 days): 362 mg | tumor weight (range) (31 days): (362-981) mg | Tumor weight, single animals (31 days after tumor cell injection, sodium salt): 862 mg and 871 mg and 981 mg and 621 mg and 362 mg and 733 mg and 559 mg and 820 mg and 547 mg
